# Reference: US3971779A, “7-[2-(5-Amino-1,3,4-thiadiazol-2-ylthio)acetamido]cephalosporins” (American Home Products Corporation, priority 1975, dated 1976)
# Where two headings read alike, the source gives them in different places.
# Columns and labels:
# Salmonella typhi 19430 = experiment: agar serial dilution MIC; format: cell-based; conditions: Salmonella enterica
# Method: (§1) A stock solution of 7-[2-(4,5-dihydro-5-imino-1,3,4-thiadiazol-2-ylthio)acetamido]cephalosporanic acid as the hydrobromic acid addition salt containing 2,500 μg. of the active moiety is prepared in phosphate buffer. Two fold serial dilutions are prepared with phosphate buffer. One milliliter (ml.) quantities of each dilution are incorporated in 9 ml. seen agar in sterile Petri plates. The hardened surface is innoculated with test organisms using a Steers replicating device. The plates are incubated at 35° C. for 18 hours.
# (§2) The test organisms are Bacillus subtilis (BA SU) 6633; Staphylococcus aureus (ST AU) 6538P, Smith CHP, and 3-180; Mycobacterium smegmatis (MY SM) 10143; Neisseria catarrhalis (NE CA) 8193; Pseudonomas aeruginosa (PS AE) 10145; Escherichia coli (ES CO) 9637, and 920; Escherichia intermedia (ES IN) 65-1; Salmonella paratyphi (SA PA) 11737; Enterobacter aerogenes (EN AE) 13048; Klebsiella pneumoniae (KL PN) 10031; Bordetella bronchiseptica (BO BR) 4617; Proteus vulgaris (PR VU) 6896; and Herellea species (HE SP) 9955. These organisms are grown for 18 hours in Brain heart infusion at 35° C. Prior to use the cultures are diluted 10 fold with the infusion, except in the case of Mycobacterium. The latter is grown in Emerson's broth for 5 days at 28° C. in shaker flasks and used undiluted.
# (§3) Following the procedure of Example 2 but substituting the organisms listed below the same preparation of 7-[2-(4,5-dihydro-5-imino-1,3,4-thiadiazol-2-ylthio)acetamido]cephalosporanic acid (Compound A) as used in Example 3, a third sample of the same compound, prepared as described in Example 1 (Compound B) and 7-[2-(5-acetamido-1,3,4-thiadiazol-2-ylthio)acetamido]cephalosporanic acid (Compound C) are tested to obtain the results shown: […]
# [1] = system: Providencia stuartii 25825; experiment: agar serial dilution MIC; format: cell-based; conditions: Example 4
# Method: as §1, §2, §3
# [2] = system: Klebsiella rhinoscleromatis 13884; experiment: agar serial dilution MIC; format: cell-based; conditions: Klebsiella pneumoniae, Example 4
# Method: as §1, §2, §3
# [3] = system: Providencia alcalifaciens 9886; experiment: agar serial dilution MIC; format: cell-based; conditions: Example 4
# Method: as §1, §2, §3
# Edwardsiella tarda 15947 = experiment: agar serial dilution MIC; format: cell-based
# Method: as §1, §2, §3
# [4] = system: Klebsiella pneumoniae 13883; experiment: agar serial dilution MIC; format: cell-based
# Method: as §1, §2, §3
# [5] = system: Salmonella cholera-suis 13312; experiment: agar serial dilution MIC; format: cell-based
# Method: as §1, §2, §3
# Shigella boydii 9207 = experiment: agar serial dilution MIC; format: cell-based; conditions: Example 4
# Method: as §1, §2, §3
# Serratia rubidae 27593 = experiment: agar serial dilution MIC; format: cell-based; conditions: Example 4
# Method: as §1, §2, §3
# [6] = system: Serratia liquefaciens 27592; experiment: agar serial dilution MIC; format: cell-based; conditions: Example 4
# Method: as §1, §2, §3
# [7] = system: Enterobacter agglomerans 27155; experiment: agar serial dilution MIC; format: cell-based
# Method: as §1, §2, §3
# Proteus rettgeri 9918 = experiment: agar serial dilution MIC; format: cell-based; conditions: Providencia rettgeri, Example 4
# Method: as §1, §2, §3
# Shigella sonnei 11060 = experiment: agar serial dilution MIC; format: cell-based; conditions: Example 4
# Method: as §1, §2, §3
# [8] = system: Salmonella enteritidis 13076; experiment: agar serial dilution MIC; format: cell-based; conditions: Salmonella enterica, Example 4
# Method: as §1, §2, §3
# [9] = system: Staphylococcus aureaus CHP; experiment: mice infected intraperitoneally, single dose six hours post-infection, deaths and CD50; format: in vivo; conditions: for ED50: Staphylococcus, po, single dose, mice; for Deaths / Total No. Treated: oral
# Method: Mice are infected intraperitoneally with a standardized suspension of Staphylococcus aureaus CHP in 5% gastric mucin. The animals are randomized. Six hours post-infection a single dose of the compound indicated is administered by the route indicated. The animals are observed for a 30 day period and deaths are recorded daily. The CD50 for 14 and 30 days as determined by the method of Reed and Muench, American Journal of Hygiene (1938), for each compound is tabulated:
# 7-[2-(5-Acetylamino-1,3,4-thiadiazol-2-ylthio)acetamido]cephalosporanic acid is tested as described in Example 5.
compound,measurement,setting,value
"CC(=O)OCC1=C(C(=O)O)N2C(=O)C(NC(=O)CSc3n[nH]c(=N)s3)C2SC1 (stereo not drawn) [7-[2-(4,5-Dihydro-5-Imino-1,3,4-Thiadiazol-2-ylthio)Acetamido]Cephalosporanic Acid]",MIC,Salmonella typhi 19430,1.95 µg/mL
same,MIC,[1],250 µg/mL
same,MIC,[2],> 250 µg/mL
same,MIC,[3],> 250 µg/mL
same,MIC,"Edwardsiella tarda 15947; Edwardsiella tarda, 15947, Example 4",31.3 µg/mL
same,MIC,"Edwardsiella tarda 15947; Edwardsiella tarda, 15947, Example 4, read-out: MIC",15.6 µg/mL
same,MIC,"[4]; Klebsiella pneumoniae, 13883, Example 4",7.81 µg/mL
same,MIC,"[4]; Klebsiella pneumoniae, 13883, Example 4, read-out: MIC",15.6 µg/mL
same,MIC,[5],1.95 µg/mL
same,MIC,Shigella boydii 9207,62.5 µg/mL
same,MIC,Serratia rubidae 27593,> 250 µg/mL
same,MIC,[6],> 250 µg/mL
same,MIC,"[7]; Pantoea agglomerans, 27155, Example 4",7.81 µg/mL
same,MIC,"[7]; Pantoea agglomerans, 27155, Example 4, read-out: MIC",15.6 µg/mL
same,MIC,Proteus rettgeri 9918,250 µg/mL
same,MIC,Shigella sonnei 11060,62.5 µg/mL
same,MIC,[8],1.95 µg/mL
same,ED50,"[9]; 336 h, 14 Days",3.21 mg/kg
same,ED50,"[9]; 720 h, 30 Days",3.4 mg/kg
same,Deaths / Total No. Treated,"[9]; 100 mg/kg., 14 Days",10/10
same,Deaths / Total No. Treated,"[9]; 100 mg/kg., 30 Days",10/10
same,Deaths / Total No. Treated,"[9]; 200 mg/kg., 14 Days",4/10
same,Deaths / Total No. Treated,"[9]; 200 mg/kg., 30 Days",4/10
same,Deaths / Total No. Treated,"[9]; 400 mg/kg., 14 Days",0/10
same,Deaths / Total No. Treated,"[9]; 400 mg/kg., 30 Days",0/10
same,Deaths / Total No. Treated,"[9]; 800 mg/kg., 14 Days",0/10
same,Deaths / Total No. Treated,"[9]; 800 mg/kg., 30 Days",1/10
